Target: T1, ClC-3 (long-ClC-3A) (Homo sapiens, UniProt P51790)
T1 sequence (P51790 1-818): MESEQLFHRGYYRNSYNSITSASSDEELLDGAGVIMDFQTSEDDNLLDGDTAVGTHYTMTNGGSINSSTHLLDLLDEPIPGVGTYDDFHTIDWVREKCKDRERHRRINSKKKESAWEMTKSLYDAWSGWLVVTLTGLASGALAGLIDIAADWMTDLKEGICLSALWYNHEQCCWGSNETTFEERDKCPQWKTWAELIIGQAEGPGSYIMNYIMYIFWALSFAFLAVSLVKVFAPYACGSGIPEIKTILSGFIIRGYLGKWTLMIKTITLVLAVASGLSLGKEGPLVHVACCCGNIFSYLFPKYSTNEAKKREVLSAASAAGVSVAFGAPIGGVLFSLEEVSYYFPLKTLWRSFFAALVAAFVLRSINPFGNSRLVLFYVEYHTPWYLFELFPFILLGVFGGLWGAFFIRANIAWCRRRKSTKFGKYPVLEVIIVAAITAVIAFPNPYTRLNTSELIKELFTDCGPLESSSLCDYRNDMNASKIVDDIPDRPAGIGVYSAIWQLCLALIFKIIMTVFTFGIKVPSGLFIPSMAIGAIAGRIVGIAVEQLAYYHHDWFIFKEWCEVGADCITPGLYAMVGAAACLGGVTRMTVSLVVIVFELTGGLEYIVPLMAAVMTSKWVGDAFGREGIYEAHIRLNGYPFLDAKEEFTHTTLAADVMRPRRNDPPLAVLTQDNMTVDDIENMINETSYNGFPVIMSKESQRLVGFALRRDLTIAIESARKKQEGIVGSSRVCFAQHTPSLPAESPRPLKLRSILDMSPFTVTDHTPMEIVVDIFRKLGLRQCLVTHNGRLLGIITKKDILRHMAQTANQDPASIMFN
Test: whole-cell patch clamp, inhibitor in pipette
Format: cell-based

IC50: 4.6 µM
SMILES: O=P(O)(O)O[C@H]1[C@H](OP(=O)(O)O)[C@@H](OP(=O)(O)O)[C@@H](O)[C@@H](O)[C@@H]1OP(=O)(O)O [Ins(3,4,5,6)P4]
